Laboratory results as given in patent EP4273147A1, “SUBSTITUTED SPIROLACTAMS, SALTS THEREOF AND THEIR USE AS HERBICIDALLY ACTIVE SUBSTANCES” (Bayer Aktiengesellschaft, priority 2022, dated 2023).

Assays:
[1] = system: ABUTH; assay: Herbicidal pre-emergence action (Table A1); type: in vivo, Abutilon theophrasti; settings: application rate 1280 g/ha; visual grading after ca. 3 weeks vs untreated controls (100% = plants have died off, 0% = as control plants)
How it was run: (§1)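 Seeds covered with soil after sowing in sandy loam; every pot carried one monocotyledonous and one dicotyledonous weed species as a double sowing.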

[2] = system: ECHCG; assay: Herbicidal pre-emergence action (Table A2); type: in vivo, Echinochloa crus-galli; settings: application rate 320 g/ha; visual grading after ca. 3 weeks
How it was run: as §1

[3] = system: LOLRI; assay: Herbicidal pre-emergence action (Table A3); type: in vivo, Lolium rigidum; settings: Lolium rigidum, pre-emergence, 504 h, application rate 320 g/ha; visual grading after ca. 3 weeks; read-out: pre-emergence activity against LOLRI
How it was run: as §1

[4] = system: MATIN; assay: Herbicidal pre-emergence action (Table A4); type: in vivo, Matricaria inodora; settings: application rate 320 g/ha; visual grading after ca. 3 weeks
How it was run: as §1

[5] = system: SETVI; assay: Herbicidal pre-emergence action (Table A5); type: in vivo, Setaria viridis; settings: application rate 320 g/ha; visual grading after ca. 3 weeks
How it was run: as §1

[6] = system: STEME; assay: Herbicidal pre-emergence action (Table A6); type: in vivo, Stellaria media; settings: application rate 320 g/ha; visual grading after ca. 3 weeks
How it was run: as §1

[7] = system: POAAN; assay: Herbicidal pre-emergence action (Table A7); type: in vivo, Poa annua; settings: Poa annua, pre-emergence, 504 h; application rate 320 g/ha; visual grading after ca. 3 weeks; read-out: pre-emergence activity against POAAN
How it was run: as §1

[8] = system: ALOMY; assay: Herbicidal pre-emergence action (Table A9); type: in vivo, Alopecurus myosuroides; settings: application rate 1280 g/ha; visual grading after ca. 3 weeks
How it was run: as §1

[9] = system: KCHSC; assay: Herbicidal pre-emergence action (Table A10); type: in vivo, Kochia scoparia; settings: application rate 320 g/ha; visual grading after ca. 3 weeks
How it was run: as §1

[10] = system: VERPE; assay: Herbicidal pre-emergence action (Table A11); type: in vivo, Veronica persica; settings: application rate 320 g/ha; visual grading after ca. 3 weeks
How it was run: as §1

[11] = system: DIGSA; assay: Herbicidal pre-emergence action (Table A12); type: in vivo, Digitaria sanguinalis; settings: application rate 320 g/ha; visual grading after ca. 3 weeks
How it was run: as §1

[12] = system: ABUTH; assay: Herbicidal post-emergence action (Table B1); type: in vivo, Abutilon theophrasti; settings: application rate 320 g/ha; treated at one-leaf stage; rated visually after about 3 weeks vs untreated controls (100% = plants have died, 0% = like control plants)
How it was run: (§2)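 Greenhouse post-emergence screen on potted weeds in sandy loam, treatment at one-leaf stage, visual % control scored ~3 weeks later against untreated plants.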

[13] = system: ALOMY; assay: Herbicidal post-emergence action (Table B2); type: in vivo, Alopecurus myosuroides; settings: application rate 320 g/ha; rated visually after about 3 weeks
How it was run: as §2

[14] = system: KCHSC; assay: Herbicidal post-emergence action (Table B4); type: in vivo, Kochia scoparia; settings: application rate 1280 g/ha; rated visually after about 3 weeks
How it was run: as §2

[15] = system: LOLRI; assay: Herbicidal post-emergence action (Table B5); type: in vivo, Lolium rigidum; settings: application rate 1280 g/ha; rated visually after about 3 weeks
How it was run: as §2

[16] = system: MATIN; assay: Herbicidal post-emergence action (Table B6); type: in vivo, Matricaria inodora; settings: application rate 320 g/ha; rated visually after about 3 weeks
How it was run: as §2

[17] = system: POAAN; assay: Herbicidal post-emergence action (Table B7); type: in vivo, Poa annua; settings: application rate 320 g/ha
How it was run: as §2

[18] = system: SETVI; assay: Herbicidal post-emergence action (Table B8); type: in vivo, Setaria viridis; settings: application rate 1280 g/ha
How it was run: as §2

[19] = system: STEME; assay: Herbicidal post-emergence action (Table B9); type: in vivo, Stellaria media; settings: application rate 1280 g/ha
How it was run: as §2

[20] = system: VERPE; assay: Herbicidal post-emergence action (Table B10); type: in vivo, Veronica persica; settings: application rate 320 g/ha
How it was run: as §2

[21] = system: AMARE; assay: Herbicidal post-emergence action (Table B11); type: in vivo, Amaranthus retroflexus; settings: application rate 1280 g/ha
How it was run: as §2

[22] = system: ALOMY; assay: Herbicidal pre-emergence action, section C (Table C2); type: in vivo, Alopecurus myosuroides; settings: application rate 320 g/ha; visual grading after ca. 3 weeks
[23] = system: DIGSA; assay: Herbicidal pre-emergence action, section C (Table C5); type: in vivo, Digitaria sanguinalis; settings: application rate 80 g/ha; visual grading after ca. 3 weeks
[24] = system: ECHCG; assay: Herbicidal pre-emergence action, section C (Table C6); type: in vivo, Echinochloa crus-galli; settings: application rate 80 g/ha; visual grading after ca. 3 weeks
[25] = system: LOLRI; assay: Herbicidal pre-emergence action, section C (Table C7); type: in vivo, Lolium rigidum; settings: application rate 320 g/ha; visual grading after ca. 3 weeks
[26] = system: MATIN; assay: Herbicidal pre-emergence action, section C (Table C8); type: in vivo, Matricaria inodora; settings: application rate 320 g/ha; visual grading after ca. 3 weeks
[27] = system: SETVI; assay: Herbicidal pre-emergence action, section C (Table C10); type: in vivo, Setaria viridis; settings: application rate 80 g/ha; visual grading after ca. 3 weeks
[28] = system: VERPE; assay: Herbicidal pre-emergence action, section C (Table C11); type: in vivo, Veronica persica; settings: application rate 320 g/ha; visual grading after ca. 3 weeks
[29] = system: VIOTR; assay: Herbicidal pre-emergence action, section C (Table C12); type: in vivo, Viola tricolor; settings: application rate 320 g/ha; visual grading after ca. 3 weeks
[30] = system: ALOMY; assay: Herbicidal post-emergence action, section E (Table E2); type: in vivo, Alopecurus myosuroides; settings: application rate 320 g/ha; assessed visually after ca. 3 weeks
Source text: (§3) 2 to 3 weeks after sowing, the test plants were sprayed in the single-leaf stage.

[31] = system: ECHCG; assay: Herbicidal post-emergence action, section E (Table E5); type: in vivo, Echinochloa crus-galli; settings: application rate 320 g/ha; assessed visually after ca. 3 weeks
Source text: as §3

[32] = system: LOLRI; assay: Herbicidal post-emergence action, section E (Table E6); type: in vivo, Lolium rigidum; settings: application rate 320 g/ha; assessed visually after ca. 3 weeks
Source text: as §3

[33] = system: SETVI; assay: Herbicidal post-emergence action, section E (Table E8); type: in vivo, Setaria viridis; settings: application rate 320 g/ha; assessed visually after ca. 3 weeks
Source text: as §3

[34] = system: VERPE; assay: Herbicidal post-emergence action, section E (Table E9); type: in vivo, Veronica persica; settings: application rate 320 g/ha; assessed visually after ca. 3 weeks
Source text: as §3

[35] = system: ZEAMX; assay: Post-emergence effects on crop plants (Table F1); type: in vivo, Zea mays; settings: application rate 320 g/ha, crop plant ZEAMX
Source text: as §3

[36] = system: TRZAS; assay: Post-emergence effects on crop plants (Table F2); type: in vivo, Triticum aestivum; settings: application rate 80 g/ha, crop plant TRZAS
Source text: as §3

[37] = system: ORYZA; assay: Post-emergence effects on crop plants (Table F3); type: in vivo, Oryza sativa; settings: application rate 80 g/ha, crop plant ORYZA
Source text: as §3

[38] = system: BRSNW; assay: Post-emergence effects on crop plants (Table F5); type: in vivo, Brassica napus; settings: application rate 320 g/ha, crop plant BRSNW
Source text: as §3

## O=C1N(Cc2cccc(F)c2F)CCCC12CCCN(Cc1c(F)cccc1F)C2=O (racemic) [I-008, 8-[(2,3-difluorophenyl)methyl]-2-[(2,6-difluorophenyl)methyl]-2,8-diazaspiro[5.5]undecane-1,7-dione]
[1]
  pre-emergence activity against ABUTH: 90%
[2]
  pre-emergence activity against ECHCG: 100%
[3]
  pest or weed control at 320 g/ha: 100%
[4]
  pre-emergence activity against MATIN: 100%
[5]
  pre-emergence activity against SETVI: 100%
[6]
  pre-emergence activity against STEME: 90%
[7]
  pest or weed control at 320 g/ha: 100%
[8]
  pre-emergence activity against ALOMY: 90%
[9]
  pre-emergence activity against KCHSC: 90%
[10]
  pre-emergence activity against VERPE: 90%
[11]
  pre-emergence activity against DIGSA: 100%
[12]
  post-emergence activity against ABUTH: 90%
[13]
  post-emergence activity against ALOMY: 90%
[14]
  post-emergence activity against KCHSC: 90%
[15]
  post-emergence activity against LOLRI: 100%
[16]
  post-emergence activity against MATIN: 90%
[17]
  post-emergence activity against POAAN: 90%
[18]
  post-emergence activity against SETVI: 90%
[19]
  post-emergence activity against STEME: 90%
[20]
  post-emergence activity against VERPE: 90%
[21]
  post-emergence activity against AMARE: 90%
[22]
  pre-emergence activity against ALOMY: 90%
[23]
  pre-emergence activity against DIGSA: 100%
[24]
  pre-emergence activity against ECHCG: 100%
[25]
  pre-emergence activity against LOLRI: 90%
[26]
  pre-emergence activity against MATIN: 80%
[27]
  pre-emergence activity against SETVI: 100%
[28]
  pre-emergence activity against VERPE: 80%
[29]
  pre-emergence activity against VIOTR: 80%
[30]
  post-emergence activity against ALOMY: 90%
[31]
  post-emergence activity against ECHCG: 90%
[32]
  post-emergence activity against LOLRI: 90%
[33]
  post-emergence activity against SETVI: 90%
[34]
  post-emergence activity against VERPE: 80%
[35]
  post-emergence activity against ZEAMX: 0%
[36]
  post-emergence activity against TRZAS: 0%
[37]
  post-emergence activity against ORYZA: 0%
[38]
  post-emergence activity against BRSNW: 0%
